Patent US5019574A, “3,4-diaminoquinoline and 3,4-diamino-5,6,7,8-tetrahydroquinoline compounds useful for improving psychoneural function” (Chugai Seiyaku Kabushiki Kaisha, priority 1988, dated 1991)
Read-outs that look alike come from different tables or passages of the source.

Legend:
[1] = tested on: norepinephrine uptake into the synaptosomes; test: Inhibition of catecholamine uptake: 3H-norepinephrine uptake into synaptosomes; format: biochemical, rats (F344/Crj); details: 1 μM; norepinephrine uptake in the absence of drug compounds taken as 100
Protocol: (§1) Inhibition of Catecholamine Uptake:
(§2) A crude synaptosomal fraction (P2) was obtained from the brain of rats (F344/Crj) in the usual manner. In accordance with the method of S. H. Snyder and J. T. Coyle described in Journal of Pharmacology and Experimental Therapeutics, 165(1), 78-86, 1969, the fraction P2 was incubated in a Krebs-Henseleit bicarbonate buffer solution at 37° C. for 10 minutes together with 50 nM ^3 H-norepinephrine (0.25 jμCi). Thereafter, the uptake of norepinephrine into the synaptosomes was measured by the filtration method. Selected compounds were added at a concentration of 1 μM to the solution being incubated and their effect on norepinephrine uptake was examined. The control drug was tetrahydroaminoacridine (THA).
The results are shown in Table 3 in terms of percentage, with norepinephrine uptake in the absence of drug compounds being taken as 100.

male ICR mice = test: Improvement of memory and learning ability tested by passive avoidance response; format: in vivo; details: dose 10 (μg/kg i.p.); retention trial 24 hours after acquisition trial
Protocol: Improvement of memory and Learning Ability Tested by Passive Avoidance Response:
Four groups of male ICR mice (10-14 weeks old). each consisting of 10 animals, were used in the experiment. Except for one control group, the mice were administered with selected compounds of the present invention. The experimental chamber consisted of a light and a dark compartment and an electric current shock source was connected to the floor grid in the dark compartment.
The experimental sessions consisted of acclimation. acquisition, and retention trials and were performed for […], one trial per day. In the acclimation trial, animals were placed in the light compartment of the experimental chamber and left there for 5 minutes to acclimate them to the apparatus. In the acquisition trial which was conducted on the 2nd day, the animals were placed in the light compartment and when they entered the dark compartment, they were confined and given an a.c. electric shock (1 mA) through the floor grid for 10 seconds. In the retention trial which was conducted 24 hours after the acquisition trial, the animals were placed in the light compartment of the chamber and the step-through latency (i.e., the time required for the animals to enter the dark compartment) was measured. A physiological saline solution was administered at the acclimation trial to all of the animals. At the acquisition trial, selected compounds were administered in amounts of 10 μg/kg of body weight (1 ml/100 g). The control group was administered the same amount of physiological saline solution 60 minutes before the start of the trial. All administrations were intraperitoneal.

acetylcholinesterase = molecular target: T1, acetylcholinesterase (Electrophorus electricus, UniProt O42275); test: Inhibition of acetylcholinesterase activity; format: biochemical; details: activity without drug compound taken as 100, average of three measurements, read-out: Inhibition rate (%)
T1 construct: purchased Sigma C-2888
Protocol: Inhibition of Acetylcholinesterase Activity:
Acetylcholinesterase activity was assayed in accordance with the method of S. H. Sterri and F. Fonnum described in European Journal of Biochemistry, 91: 215-222, 1978. The method consisted of incubating 0.5 μU of authentic acetylcholinesterase ([…]) (Sigma, No. C-2888) at 30° C. for 15 minutes in a 20 mM sodium phosphate buffer (pH 7.4). with 1.3 mM [1^-14 C] acetylcholine (0.025 μCi) being used as a substrate. Selected compounds of the general formula (I) were added at a concentration of 1 μM to the reaction solution and the resulting effect on enzymatic activity was evaluated.
The result was obtained as the average of three measurements and shown in Table 2 in terms of percentage, with the activity for the case where no drum compound was added being taken as 100.

[2] = tested on: uptake of dopamine into synaptosomes; test: Inhibition of catecholamine uptake: 3H-dopamine uptake into synaptosomes; format: biochemical, rats (F344/Crj); details: 1 μM; dopamine uptake in the absence of drugs taken as 100
Protocol: as §2, §1
The uptake of dopamine into synaptosomes was measured by repeating the procedure of Test Example 2 except that 50 nM ^3 H-norepinephrine (0.25 μCi) was replaced by 15 nM ^3 H-dopamine (0.68 μCi). The control drug was tetrahydroaminoacridine (THA). The result is shown in Table 5 in terms of percentage, with dopamine uptake in the absence of drugs being taken as 100.

MAO-B = molecular target: T2, MAO-B (Rattus norvegicus, UniProt P19643); test: Inhibition of monoamine oxidase: MAO-B; format: biochemical, rats (F344/Crj); details: read-out: Inhibition rate (%) MAO-B
T2 construct: A crude synaptosomal fraction (P2) was obtained from the brain of rats (F344/Crj); from tissue; host or cells: rat (F344/Crj) brain, crude synaptosomal fraction (P2), homogenized
T2 sequence (P19643 1-520): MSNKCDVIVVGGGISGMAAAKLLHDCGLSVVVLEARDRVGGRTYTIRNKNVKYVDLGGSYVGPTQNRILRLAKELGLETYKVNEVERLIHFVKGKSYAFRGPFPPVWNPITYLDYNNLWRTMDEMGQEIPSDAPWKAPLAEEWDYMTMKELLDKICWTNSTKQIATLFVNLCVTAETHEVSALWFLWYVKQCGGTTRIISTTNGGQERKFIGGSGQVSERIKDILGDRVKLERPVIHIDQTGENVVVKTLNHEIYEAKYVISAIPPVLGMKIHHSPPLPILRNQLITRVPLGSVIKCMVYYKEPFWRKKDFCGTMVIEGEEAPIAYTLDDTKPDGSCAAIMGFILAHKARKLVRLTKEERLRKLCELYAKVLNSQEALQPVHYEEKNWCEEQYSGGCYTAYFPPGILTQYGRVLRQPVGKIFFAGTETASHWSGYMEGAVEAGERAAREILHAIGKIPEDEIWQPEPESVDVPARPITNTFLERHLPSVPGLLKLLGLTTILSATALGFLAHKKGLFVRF
Protocol: (§3) Inhibition of Monoamine Oxidase (MAO):
(§4) A crude synaptosomal fraction (P2) was obtained from the brain of rats (F344/Crj) in the usual manner and homogenized to perform MAO activity measurements. The substrate was 12 μM [^14 C]-serotonin in the case of MAO-A activity measurements, and 5 μM [^14 C]-2-phenethylamine in the case of MAO-B activity measurements. In accordance with the method of R. J. Wurtman and J. Axelrod described in Biochemical Pharmacol. 12, […], 1963, the homogenates were incubated in 100 mM phosphate buffer (pH 7.4) at 37° C. for 20 minutes and the effect of adding selected compounds at a concentration of 10 μM was evaluated.

MAO-A = molecular target: T3, MAO-A (Rattus norvegicus, UniProt P21396); test: Inhibition of monoamine oxidase: MAO-A; format: biochemical, rats (F344/Crj); details: read-out: Inhibition rate (%) MAO-A
T3 construct: A crude synaptosomal fraction (P2) was obtained from the brain of rats (F344/Crj); from tissue; host or cells: rat (F344/Crj) brain, crude synaptosomal fraction (P2), homogenized
T3 sequence (P21396 1-526): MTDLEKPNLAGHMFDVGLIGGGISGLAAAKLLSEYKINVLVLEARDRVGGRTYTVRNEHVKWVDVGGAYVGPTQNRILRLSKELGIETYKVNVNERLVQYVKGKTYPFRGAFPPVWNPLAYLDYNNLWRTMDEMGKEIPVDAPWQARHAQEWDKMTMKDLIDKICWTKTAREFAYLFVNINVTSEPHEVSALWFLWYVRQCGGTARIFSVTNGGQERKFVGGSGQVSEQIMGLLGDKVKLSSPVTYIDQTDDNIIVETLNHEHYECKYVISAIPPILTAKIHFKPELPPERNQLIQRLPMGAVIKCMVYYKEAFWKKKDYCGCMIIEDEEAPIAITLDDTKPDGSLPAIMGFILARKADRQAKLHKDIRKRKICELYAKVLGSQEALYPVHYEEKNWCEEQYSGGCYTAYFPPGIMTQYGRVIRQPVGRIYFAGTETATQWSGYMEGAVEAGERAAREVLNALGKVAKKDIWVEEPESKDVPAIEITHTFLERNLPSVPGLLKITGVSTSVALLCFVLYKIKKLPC
Protocol: as §3, §4

[3] = 10 μM, 5 μM [14C]-2-phenethylamine substrate, None = 100
[4] = 10 μM, 12 μM [14C]-serotonin substrate, None = 100

T1 sequence (O42275 24-633): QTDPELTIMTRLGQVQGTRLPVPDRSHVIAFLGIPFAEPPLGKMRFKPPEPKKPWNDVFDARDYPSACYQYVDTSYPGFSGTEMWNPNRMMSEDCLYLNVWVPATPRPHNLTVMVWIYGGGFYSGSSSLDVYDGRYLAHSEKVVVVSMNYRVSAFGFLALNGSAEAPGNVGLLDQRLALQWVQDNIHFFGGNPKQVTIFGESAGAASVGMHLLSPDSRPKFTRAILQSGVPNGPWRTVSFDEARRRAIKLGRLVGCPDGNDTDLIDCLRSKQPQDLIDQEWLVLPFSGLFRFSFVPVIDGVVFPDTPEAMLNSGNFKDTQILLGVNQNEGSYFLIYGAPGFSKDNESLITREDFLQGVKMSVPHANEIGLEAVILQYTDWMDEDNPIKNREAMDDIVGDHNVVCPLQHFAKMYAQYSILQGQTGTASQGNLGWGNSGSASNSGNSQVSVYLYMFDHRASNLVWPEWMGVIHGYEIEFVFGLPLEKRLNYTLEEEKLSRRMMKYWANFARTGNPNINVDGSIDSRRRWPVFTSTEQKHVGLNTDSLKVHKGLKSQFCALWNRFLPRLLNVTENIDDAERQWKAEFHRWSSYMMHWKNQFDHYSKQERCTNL

Structure (SMILES)	Inhibition rate (%) [1]	Step through latency (male ICR mice)	inhibition at 1 µM (acetylcholinesterase)	Inhibition rate (%) [2]	other results
Nc1c(N2CCCCC2)cnc2ccccc12 [Compound 1, 4-amino-3-piperidinoquinoline]	69.1%				
CN1CCN(c2cnc3ccccc3c2N)CC1 [Compound 2]		92.1 ± 13.5 s	27.1%		
Nc1c2c(nc(C3CCCCC3O)c1N1CCOCC1)CCCC2 (centres unmarked) [Compound 6, 4-amino-g-(2.-hydroxycyclohexyl)-3-morpholino-5,6,7,8-tetrahydroquinoline]	82.6%	144.8 ± 45.1 s	36.9%		
Nc1c(N2CCOCC2)c(Nc2ccccc2)nc2ccccc12 [Compound 13, 4-amino-2-anilino-3-morpholinoquinoline]		100.2 ± 17.8 s			
Nc1c2c(nc(Nc3ccccc3)c1N1CCOCC1)CCCC2 [Compound 15, 4-amino-2-anilino-3-morpholino-5,6,7,8-tetrahydroquinoline]	85.4%	80.4 ± 14.6 s	37.2%		
Nc1c2c(nc(NC3CCCCC3)c1N1CCOCC1)CCCC2 [Compound 16]	88.1%	102.1 ± 22.3 s	25.9%		
Nc1c(N2CCOCC2)c(C2CCCCC2)nc2ccccc12 [Compound 18, 4-amino-2-cyclohexyl-3-morpholinoquinoline]		116.4 ± 29.2 s			
Nc1c2c(nc(C3CCCCC3)c1N1CCOCC1)CCCC2 [Compound 19, 4-amino-2-cyclohexyl-3-morpholino-5,6,7,8-tetrahydroquinoline]	83.2%	107.1 ± 29.9 s	21.8%		
CCN(CC)c1c(C2CCCCC2=O)nc2ccccc2c1N (centres unmarked) [Compound 22]		144.8 ± 25.5 s			
CCN(CC)c1c(C2CCCCC2O)nc2c(c1N)CCCC2 (centres unmarked) [Compound 23]	73.7%			83.0%	
CCN(CC)c1c(C2CCCCC2)nc2ccccc2c1N [Compound 24]	68.2%	94.2 ± 14.7 s		59.6%	
CCN(CC)c1c(C2CCCCC2)nc2c(c1N)CCCC2 [Compound 25]	75.3%		30.1%	76.4%	
Nc1c(N2CCCCC2)c(C2CCCCC2)nc2ccccc12 [Compound 26]	68.2%			55.4%	
Nc1c2c(nc(C3CCCCC3)c1N1CCCCC1)CCCC2 [Compound 28]	85.2%		22.2%	80.5%	
CCCN(CCC)c1c(C2CCCCC2O)nc2c(c1N)CCCC2 (centres unmarked) [Compound 30]	76.9%			79.2%	
CCCN(CCC)c1c(C2CCCCC2)nc2c(c1N)CCCC2 [Compound 32]	73.2%	109.7 ± 16.6 s	28.7%	71.0%	
CCN(CC)c1c(NC2CCCCC2)nc2c(c1N)CCCC2 [Compound 34]	80.0%			84.8%	
Nc1c(N2CCCCC2)c(Nc2ccccc2)nc2ccccc12 [Compound 35]			28.3%		
CCCC(C)c1nc2ccccc2c(N)c1N1CCOCC1 (centres unmarked) [Compound 39]	71.9%	108.3 ± 16.0 s			
CCCC(C)c1nc2c(c(N)c1N1CCOCC1)CCCC2 (centres unmarked) [Compound 40]		113.1 ± 29.6 s			
Nc1c2c(nc(C3CCCCC3=O)c1N1CCOCC1)CCCC2 (centres unmarked) [Compound 41]			4.2%		
CCNc1nc2ccccc2c(N)c1N1CCOCC1 [Compound 43, 4-amino-2-ethylamino-3-morpholinoquinoline]	78.8%	109.1 ± 13.4 s			
CCOc1nc2ccccc2c(N)c1N1CCCCC1 [Compound 44]		90.4 ± 12.4 s			
CCNc1nc2ccccc2c(N)c1N1CCCCC1 [Compound 45]	79.8%	70.7 ± 6.8 s		82.3%	
Nc1ccnc(C2CCCCC2=O)c1N1CCOCC1 (centres unmarked) [Compound 49]				67.5%	inhibition at 10 µM (MAO-B; [3]): 71.2%; inhibition at 10 µM (MAO-A; [4]): 54.5%
Nc1ccnc(C2CCCCC2=O)c1N1CCCCC1 (centres unmarked) [Compound 50]		83.4 ± 14.8 s			
CCNc1c(N2CCOCC2)nc2ccccc2c1N [Compound 52, 4-amino-3-ethylamino-2-morpholinoquinoline]	79.8%			57.8%	inhibition at 10 µM (MAO-B; [3]): 63%; inhibition at 10 µM (MAO-A; [4]): 0%
Nc1c2c(nc3ccccc13)CCCC2 [control, tetrahydroaminoacridine, reference compound]					inhibition at 10 µM (MAO-B): 90.3%; inhibition at 10 µM (MAO-A): 60.8%
Nc1c(N2CCCCC2)cnc2ccccc12 [drawing 149]					inhibition at 10 µM (MAO-B; [3]): 82.9%; inhibition at 10 µM (MAO-A; [4]): 44.1%
